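Grown in 96-well plates, cells were treated for 48 hours with each compound at five concentrations. Insufficient inhibition: endpoint recorded as highest concentration tested. At the GI50, growth is halved.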 The source made the active and inactive calls. Rule as the data show it: active = GI50 up to about 1.1 µM and inactive = higher.

Experimental findings from ChEMBL document CHEMBL1201862, “PubChem BioAssay data set” (2004) are described below.

Common to all, as to assay: NCI tumour cell line growth inhibition, 48 h
In test [1] the test system is A549.
The subject of test [2] is COLO 205.
The test system of test [3] is HL-60.
Test [4] has as its system HT-29.
Test [5] relates to LOX IMVI.
Test [6] deals with MCF7.
For test [7], the system named is MDA-MB-435.
Test [8] has as its system Malme-3M.
Test [9] has as its system NCI-H460.
Test [10] has as its system OVCAR-5.
For test [11], the system named is PC-3.
Test [12] has as its system RPMI-8226.
Test [13] relates to SF-268.
In test [14] the test system is SF-539.
Test [15] relates to SK-MEL-28.
Test [16] concerns SK-MEL-2.
For test [17], the system named is SR.
The subject of test [18] is SW-620.
Test [19] concerns TK-10.
The test system of test [20] is UACC-62.

In the case of `Cc1ccc(S(=O)(=O)N/N=C/C2(c3ccccc3)c3ccccc3-c3ccccc32)cc1`, the GI50 in test [1] is 5.74 µM (inactive); in [2] it was 3.62 µM (inactive); in [3], > 100 µM (inactive); in test [4] it was 12.5 µM (inactive); in [5] it was 12.7 µM (inactive); in test [6] it was 6.98 µM (inactive). Also, the GI50 in test [7] is 11 µM (inactive); in test [8] it was 5.42 µM (inactive); in test [9], 5.06 µM (inactive); in [10], 12.4 µM (inactive); in [11] it was 3.38 µM (inactive); in test [12], 7.45 µM (inactive). For the same molecule, the GI50 in [13] is 14 µM (inactive); in test [14], 15.8 µM (inactive); in [15], 14.8 µM (inactive); in [16] it was 12.2 µM (inactive); in [17] it was 7.45 µM (inactive); in test [18], 15 µM (inactive). Further, the GI50 is 20.9 µM (inactive) in [19] and 11.2 µM (inactive) in [20].
In the case of `Cc1occc1C(=S)Nc1ccc(Cl)c(C(=O)OC(C(C)C)C(C)C)c1`, the GI50 was 11.6 µM (inactive) in test [1]; 9.59 µM (inactive) in [2]; 10.8 µM (inactive) in test [3]; 14.1 µM (inactive) in test [4]; 13 µM (inactive) in test [5]; 13.1 µM (inactive) in [6]. For the same molecule, the GI50 was 15.1 µM (inactive) in test [7]; 12 µM (inactive) in test [8]; 13.6 µM (inactive) in test [9]; 22.6 µM (inactive) in test [10]; 7.46 µM (inactive) in test [11]; 6.11 µM (inactive) in test [12]. For the same molecule, the GI50 in test [13] is 18.5 µM (inactive); in test [14], 16.4 µM (inactive); in test [15], 12.5 µM (inactive); in [16], 16.5 µM (inactive); in test [17], 7 µM (inactive); in [18] it was 16.6 µM (inactive). Moreover, the figures for the GI50 in test [19] and in test [20] were 15.3 µM (inactive) and 10.8 µM (inactive), respectively.
For the molecule `CC(=O)NNC(=S)N/C=C1/C(=O)Oc2ccccc2C1=O`, the GI50 in [1], in test [2], in test [3], in test [4], in test [5] and in [6] was > 100 µM (inactive) in each case. For the same molecule, the GI50 in [7], in test [8], in test [9], in test [10], in [11] and in test [12] was > 100 µM (inactive) in each case. The GI50 in test [13], in test [14], in [15], in [16], in test [17] and in test [18] was > 100 µM (inactive) each time. Besides, the GI50 in test [19] was > 100 µM (inactive); in test [20], 51.6 µM (inactive).
As for `C(=C\c1nccs1)/c1cccc(/C=C/c2nccs2)n1`, the GI50 in [1] is > 50 µM (inactive); in [2], > 50 µM (inactive); in test [3] it was > 50 µM (inactive); in [4], > 50 µM (inactive); in test [5], > 50 µM (inactive); in test [6], 18.8 µM (inactive). The GI50 in [7], in [8], in test [9], in test [10], in [11] and in [12] was > 50 µM (inactive) throughout. Moreover, the GI50 in test [13], in test [14], in test [15], in test [16], in [17] and in [18] was > 50 µM (inactive) each time. Moreover, the GI50 in test [19] and in test [20] was > 50 µM (inactive) in each case.
As to `C=C(C)C(=O)OC1CC2(C)OC2CC(OC(C)=O)/C(C)=C/C2OC(=O)C(=C)C21` (stereo not given), the GI50 in test [1] was 19 µM (inactive); in [2] it was 1.52 µM (inactive); in [3], 0.207 µM (active); in [4], 1.31 µM (inactive); in test [5], 2.73 µM (inactive); in test [6], 2.33 µM (inactive). For the same molecule, the GI50 is 1.18 µM (inactive) in test [7]; 0.573 µM (active) in test [8]; 1.73 µM (inactive) in test [9]; 5.83 µM (inactive) in [10]; 9.08 µM (inactive) in test [11]; 0.349 µM (active) in test [12]. Also, the GI50 in test [13] was 2.12 µM (inactive); in test [14], 2.82 µM (inactive); in [15], 0.724 µM (active); in [16] it was 5.37 µM (inactive); in test [17], 1.08 µM (active); in [18], 0.426 µM (active). Moreover, the GI50 in [19] was 3.45 µM (inactive); in [20], 4.57 µM (inactive).
For the molecule `CC(C)(Cl)C(Cl)CC/C(CBr)=C(\Cl)CBr` (stereo not given), the GI50 in [1] is 10.6 µM (inactive); in test [2], 2.62 µM (inactive); in test [3] it was 0.32 µM (active); in [4], 2.84 µM (inactive); in [5], 0.209 µM (active); in test [6], 2.49 µM (inactive). Further, the GI50 was 2.37 µM (inactive) in test [7]; 2.11 µM (inactive) in test [8]; 2.71 µM (inactive) in test [9]; 2.29 µM (inactive) in test [10]; 3.15 µM (inactive) in test [11]; 0.706 µM (active) in [12]. Moreover, the GI50 in test [13] is 3.3 µM (inactive); in test [14], 2.4 µM (inactive); in test [15], 2.03 µM (inactive); in test [16], 1.67 µM (inactive); in test [17], 0.443 µM (active); in test [18], 1.6 µM (inactive). Further, the GI50 is 1.95 µM (inactive) in test [19] and 1.76 µM (inactive) in test [20].
For the molecule `CC1(C)OC[C@@H](O)[C@H](C#N)CO1`, the GI50 in test [1], in [2], in [3], in test [4], in [5] and in test [6] was > 100 µM (inactive) each time. Besides, the GI50 in [7], in test [8], in test [9], in [10], in test [11] and in test [12] was > 100 µM (inactive) each time. Besides, the GI50 in [13], in [14], in test [15], in [16], in test [17] and in test [18] was > 100 µM (inactive) each time. The GI50 in test [19] and in [20] was > 100 µM (inactive) throughout.
Turning to `CC(C)Cc1ccc(C(C)/C=C2\CCC(CN3CCOCC3)C2=O)cc1` (stereo not given), the GI50 was 18.6 µM (inactive) in [1]; 9.44 µM (inactive) in test [2]; 2.69 µM (inactive) in test [3]; 6.73 µM (inactive) in [4]; 2.33 µM (inactive) in [5]; 4.31 µM (inactive) in test [6]. In addition, the GI50 in [7] is 6.92 µM (inactive); in test [8], 13.5 µM (inactive); in [9], 14.8 µM (inactive); in test [10], 20.7 µM (inactive); in test [11], 12.3 µM (inactive); in test [12] it was 0.665 µM (active). Besides, the GI50 in test [13] is 6.87 µM (inactive); in test [14], 12.5 µM (inactive); in test [15], 9.12 µM (inactive); in test [16], 16.6 µM (inactive); in test [17] it was 2.08 µM (inactive); in test [18], 3 µM (inactive). Besides, the GI50 is 5.82 µM (inactive) in test [19] and 12.5 µM (inactive) in test [20].
Regarding `C(CCc1nnc2c(n1)CCCC2)Cc1nnc2c(n1)CCCC2`, the GI50 in [1], in test [2], in test [3], in test [4], in test [5] and in test [6] was > 100 µM (inactive) each time. Besides, the GI50 is 88.7 µM (inactive) in [7]; > 100 µM (inactive) in test [8]; > 100 µM (inactive) in test [9]; > 100 µM (inactive) in [10]; 85.7 µM (inactive) in [11]; > 100 µM (inactive) in test [12]. Besides, the GI50 in test [13] is > 100 µM (inactive); in test [14], > 100 µM (inactive); in test [15], > 100 µM (inactive); in [16], > 100 µM (inactive); in [17] it was 88.7 µM (inactive); in [18], > 100 µM (inactive). For the same molecule, the GI50 in [19] and in test [20] was > 100 µM (inactive) each time.
Turning to `O=C(O)COc1c(Cl)cc(Cl)c2cccnc12`, the GI50 in test [1], in test [2], in test [3], in [4], in [5] and in test [6] was > 100 µM (inactive) throughout. Further, the GI50 in [7], in test [8], in test [9], in test [10], in test [11] and in [12] was > 100 µM (inactive) throughout. The GI50 in test [13], in test [14], in test [15], in test [16], in test [17] and in test [18] was > 100 µM (inactive) throughout. For the same molecule, the GI50 in test [19] and in [20] was > 100 µM (inactive) throughout.
